From BindingDB's records for PubMed 35973549 (Pharmaxis, 2022)

Assay: Inhibition of recombinant human SSAO

SMILES | IC50
NC/C(=C\F)COc1ccccc1 | 0.019 µM
NCC(=CF)COc1ccccc1 | 0.006 µM
Cc1ccccc1OC/C(=C/F)CN | 0.288 µM
